According to patent publication US11738033B2, “Adjunctive therapy with 25-hydroxyvitamin D and articles therefor” (priority 2014, dated 2023):
Read-outs that look alike come from different tables or passages of the source. Blank lines part the entries; values can stand above or below the compound they belong to.

Legend:
[1] = Efficacy study in osteoporosis patients treated with an antiresorptive agent (denosumab); assay type: in vivo, human; conditions: for incidence of hypocalcemia and severity of secondary hyperparathyroidism: once stable dosing has been achieved, denosumab-treated
[2] = Efficacy study in prostate cancer patients treated with denosumab; assay type: in vivo, human; conditions: for incidence of hypocalcemia and severity of SHPT and hypercalcemia: once stable dosing has been achieved, denosumab-treated
[3] = Efficacy study in breast cancer patients treated with denosumab; assay type: in vivo, human; conditions: for incidence of hypocalcemia and severity of secondary hyperparathyroidism: once stable dosing has been achieved, denosumab-treated
[4] = assay type: in vivo, human; conditions: dose escalation phase, 30 to 300 mcg daily
Method: At the start of the study, all patients have plasma PTH greater than […] as evidence of SHPT, serum calcium less than 9.8 mg/dL, spot urine Ca:Cr ratio≤0.25 (≤250 mg/g creatinine) and an estimated glomerular filtration rate greater than 15 mL/min/1.73 m^2. […] Denosumab or zoledronic acid are administered according to the typical standard of care for each patient's condition.
The 52-week study consists of a 40 week dose escalation phase followed by a 12-week maintenance phase. At the end of the maintenance phase, there is a two-week follow up phase. At the start of the study, all patients receive an initial daily dose of 30 mcg 25-hydroxyvitamin D3, which is increased at four-week intervals over the course of the dose escalation phase up to a maximum daily dose of 300 mcg. The daily dose achieved by the end of the dose escalation study is the daily dose administered during the maintenance phase.
Blood samples are collected at 2-week intervals for monitoring serum levels of calcium and phosphorus. […] Serum vitamin D metabolites and markers of bone metabolism, immune function, and tumor burden are measured at the beginning of the dose escalation phase and at the beginning and end of the maintenance phase. […] The genotype of vitamin D binding protein is determined for each subject at the beginning of the dose escalation phase.

[5] = Efficacy study in patients with metastatic bone disease receiving an antiresorptive agent; assay type: in vivo, human; conditions: with denosumab or zoledronic acid
Method: Denosumab or zoledronic acid are administered according to the typical standard of care for each patient's condition. […] Samples are collected at monthly intervals for monitoring serum and urine levels of calcium, plasma levels of PTH and serum total 25-hydroxyvitamin D. Serum markers of tumor burden and bone metabolism, as well as cancer progression are assessed at 3-month intervals.

[6] = Efficacy study in patients with metastatic bone disease, prevention of SREs; assay type: in vivo, human; conditions: with denosumab or zoledronic acid
Method: Denosumab or zoledronic acid are administered according to the typical standard of care for each patient's condition. Patients are monitored for SREs, including by appropriate non-invasive imaging techniques, and serum markers of tumor burden and bone metabolism at 3-month intervals, and at monthly intervals for serum and urine calcium levels and plasma PTH. Cancer progression is monitored at quarterly intervals.

[7] = patients with bone metastases; cited from earlier work
[8] = after 24 months, with denosumab, vs denosumab and Vitamin D3
[9] = 6-month study, compared to placebo
[10] = compared to antiresorptive plus placebo
[11] = 24-month studies, compared to placebo

- serum levels of 25-hydroxyvitamin D3 [2, 8]: higher and more consistent
Compound: C=C1CC[C@H](O)C/C1=C/C=C1\CCC[C@]2(C)[C@@H]([C@H](C)CCCC(C)(C)O)CC[C@@H]12 [25-hydroxyvitamin D3]
- increases in bone mineral density [1, 8]: larger increases
- serum PTH levels [1, 8]: lower
- incidence of hypocalcemia and severity of secondary hyperparathyroidism [1]: markedly reduced
- incidence of hypocalcemia [2, 8]: significantly lower
- increases in bone mineral density [2, 8]: larger increases
- serum PTH levels [2, 8]: lower
- time to first post-treatment SRE [2, 8]: significantly delayed
- incidence of hypocalcemia and severity of SHPT and hypercalcemia [2]: markedly reduced
- incidence of hypocalcemia [3, 8]: significantly lower
- increases in bone mineral density [3, 8]: larger increases
- serum PTH levels [3, 8]: lower
- time to additional bone metastasis [3, 8]: significantly delayed
- incidence of hypocalcemia and severity of secondary hyperparathyroidism [3]: markedly reduced
- plasma PTH [4]: decreases
- increase in serum calcium [5, 9]: greater increase
- plasma PTH [5, 9]: decrease
- risk of hypocalcemia [5, 9]: reduced risk
- time to additional bone metastasis [5, 10]: increased delay
- increase in serum calcium [6, 11]: greater increase
- plasma PTH [6, 11]: decrease
- risk of hypocalcemia [6, 11]: reduced risk
- time to additional bone metastasis or SRE [6, 10]: increased delay

Compound: O=P(O)(O)C(O)(Cn1ccnc1)P(=O)(O)O [zoledronic acid]
- patients who developed hypocalcemia [7]: 39%

Compound: C=C1CC[C@H](O)C/C1=C/C=C1\CCC[C@]2(C)[C@@H]([C@H](C)CCCC(C)C)CC[C@@H]12 [Vitamin D3, cholecalciferol]
- incidence of hypocalcemia and severity of secondary hyperparathyroidism [1]: occur more frequently
- incidence of hypocalcemia and severity of SHPT and hypercalcemia [2]: more frequently
- incidence of hypocalcemia and severity of secondary hyperparathyroidism [3]: occur more frequently
